Reference: patent publication US20210395210A1, “INHIBITION OF BACTERIAL CHAPERONIN SYSTEMS” (THE TRUSTEES OF INDIANA UNIVERSITY, priority 2018, published 2021)
pEC50, pIC50: −log10 of the molar value. Where two headings read alike, the source gives them in different places.

Experiments:
human HSP60/10 = target: T1, human HSP60/10 (Homo sapiens, UniProt P10809); assay: HSP60/10-mediated dMDH refolding assay; format: biochemical; settings: human HSP60/10-dMDH refolding assay; for pIC50: read-out: HSP60/10-dMDH Refolding IC50; for IC50: log(IC50) ± standard deviation, read-out: HSP60/10-dMDH Refolding Assay log(IC50) (converted)
T1 construct: octa-Histidine tag (TEV-cleavable) (N, cleaved yes); made in house; host or cells: HSP60 in E. coli Rosetta 2 (DE3); HSP10 in Rosetta 2 (DE3) pLysS
Procedure: Reagent preparation: For these assays, four primary reagent stocks were prepared: 1) GroEUES-dMDH or HSP60/10-dMDH binary complex stock; 2) ATP initiation stock; 3) EDTA quench stock; 4) MDH enzymatic assay stock. Denatured MDH (dMDH) was prepared by 2-fold dilution of MDH (5 mg/ml, soluble pig heart MDH from Roche, product #10127248001) with denaturant buffer (7 M guanidine-HCl, 200 mM Tris, pH 7.4, and 50 mM DTT). MDH was completely denatured by incubating at room temperature for 45 min. The binary complex solutions were prepared by slowly adding the dMDH stock to a stirring stock with GroEL (or HSP60) in folding buffer (50 mM Tris-HCl, pH 7.4, 50 mM KCl, 10 mM MgCl2, and 1 mM DTT), followed by addition of GroES (or HSP10). The binary complex stocks were prepared immediately prior to dispensing into the assay plates and had final protein concentrations of 83.3 nM GroEL (Mr 800 kDa) or HSP60 (Mr 400 kDa), 100 nM GroES or HSP10 (Mr 70 kDa), and 20 nM dMDH in folding buffer. For the ATP initiation stock, ATP solid was diluted into folding buffer to a final concentration of 2.5 mM. Quench solution contained 600 mM EDTA (pH 8.0). The MDH enzymatic assay stock consisted of 20 mM sodium mesoxalate and 2.4 mM NADH in reaction buffer (50 mM Tris-HCl, pH 7.4, 50 mM KCl, and 1 mM DTT).
Assay Protocol: First, 30 μL aliquots of the GroEL/ES-dMDH or HSP60/10-dMDH binary complex stocks were dispensed into clear, 384-well polystyrene plates. […] The chaperonin-mediated refolding cycles were initiated by addition of 20 μL of ATP stock (reagent concentrations during refolding cycle: 50 nM GroEL or HSP60, 60 nM GroES or HSP10, 12 nM dMDH, 1 mM ATP, and compounds of 100 μM to 46 nM, 3-fold dilution series). The refolding reactions were incubated at 37° C. […] Next, the assay was quenched by addition of 10 μL of the EDTA to final concentration of 100 mM. […] A340 nm measurements were recorded at 0.5 minutes (start point) and at successive time points until the amount of NADH consumed reached ˜90% (end point, generally between 20-35 minutes). The differences between the start and end point A340 values were used to calculate the % inhibition of the GroEL/ES or HSP60/10 machinery by the compounds. […] Results presented represent the averages of IC50 values obtained from at least quadriplicate (duplicate of duplicate) replicates.

[1] = system: Enterococcus faecium (ATCC 19434); assay: Bacterial proliferation assay, E. faecium; format: cell-based; settings: for pEC50: read-out: Bacterial Proliferation EC50 E. faecium
Description: (§1) Bacterial Strains: Enterococcus faecium—(Orla-Jensen) Schleifer and Kilpper-Balz strain NCTC 7171 (ATCC 19434); Drug sensitive Staphylococcus aureus—Rosenbranch strain Seattle 1945 (ATCC 25923); Methicillin resistant S. aureus (MRSA)—Rosenbach strain HPV107 (ATCC BAA-44); Klebsiella Pneumonia—(Schroeter) Trevisan strain NCTC 9633 (ATCC 13883); Acinetobacter baumannii—Bouvet and Grimont strain 2208 (ATCC 19606); Pseudomonas aeruginosa—(Schroeter) Migula strain NCTC 10332 (ATCC 10145); Enterobacter cloacae—E. cloacae, subsp. cloacae (Jordan) Hormaeche and Edwards strain CDC 442-68 (ATCC 13047).
(§2) Growth Media: All bacteria were grown in Brain Heart Infusion (BHI) broth/agar (Becton, Dickinson and Company). All liquid cultures were grown in BHI media supplemented with 25 mg/L Ca^2+ and 12.5 mg/L Mg^2+ to mimic free physiological concentrations of these cations. A 10 mg/mL Ca^2+ stock solution was prepared by dissolving 3.68 g of CaCl2.2H2O in 100 mL of deionized water, and a 10 mg/mL Mg^2+ stock solution was prepared by dissolving 8.36 g of MgCl2.6H2O in 100 mL deionized water. Both stock solutions were filter-sterilized using 0.2 μm pore size cellulose-acetate filters. 2.5 mL of the sterile 10 mg/mL Ca^2+ stock and 1.25 mL of the sterile 10 mg/mL Mg^2+ stock solutions were added per 1 L of autoclaved BHI medium to obtain 25 mg/L Ca^2+ and 12.5 mg/L Mg^2+ ions, respectively.
(§3) General Assay Protocol: Stock bacterial cultures were streaked onto BHI agar plates and grown overnight at 37° C. Fresh aliquots of broth were inoculated with single bacterial colonies and the cultures were grown overnight at 37° C. with shaking (240 rpm) in cation adjusted BHI media. The following morning, the overnight cultures were sub-cultured (1:5 dilution) into fresh aliquots of cation adjusted BHI media and grown at 37° C. for 1-2 hours with shaking. After 2 h, cultures were diluted into fresh media to achieve final OD600 readings of 0.017. Aliquots of these diluted cultures (30 μL) were added to clear, flat-bottom, 384-well polystyrene plates that were stamped with 0.5 μL of test compounds in 20 μL media. […] Plates were sealed with “Breathe Easy” oxygen permeable membranes (Diversified Biotech) and left to incubate at 37° C. without shaking (stagnant assay). OD600 nm readings were taken at either 6-8 h (S. aureus, MRSA, K. pneumonia, E. cloacae, and P. aeruginosa) or 24 h (E. faecium and A. baumannii). A second set of baseline control plates were prepared analogously, but without any bacteria added, to correct for possible compound absorbance and/or precipitation. Plates were then read at 600 nm using a Molecular Devices SpectraMax Plus384 microplate reader. […] Results presented represent the averages of EC50 values obtained from at quadriplicate (duplicate of duplicate) replicates.

[2] = system: Klebsiella Pneumonia (ATCC 13883); assay: Bacterial proliferation assay, K. pneumoniae; format: cell-based
Description: as §1, §2, §3

[3] = system: Acinetobacter baumannii (ATCC 19606); assay: Bacterial proliferation assay, A. baumannii; format: cell-based; settings: for pEC50: read-out: Bacterial Proliferation EC50 A. baumannii
Description: as §1, §2, §3

[4] = system: Pseudomonas aeruginosa (ATCC 10145); assay: Bacterial proliferation assay, P. aeruginosa; format: cell-based
Description: as §1, §2, §3

[5] = ATCC19434, log of EC50 (μM scale), with standard deviation, read-out: log(EC50) Bacterial Proliferation Assay C. faecium (converted)
[6] = ATCC13883, OD600 at 6-8 h, read-out: Bacterial Proliferation EC50 K. pneumoniae
[7] = ATCC13883, log of EC50 (μM scale), with standard deviation, read-out: log(EC50) Bacterial Proliferation Assay K. pneumoniae (converted)
[8] = ATCC19606, log of EC50 (μM scale), with standard deviation, read-out: log(EC50) Bacterial Proliferation Assay A. baumannii (converted)
[9] = ATCC10145, OD600 at 6-8 h, read-out: Bacterial Proliferation EC50 P. aeruginosa
[10] = ATCC10145, log of EC50 (μM scale), with standard deviation, read-out: log(EC50) Bacterial Proliferation Assay P. aeruginosa (converted)
[11] = ATCC19434, read-out: log(EC50) Bacterial Proliferation Assay C. faecium (converted)
[12] = ATCC13883, read-out: Bacterial Proliferation EC50 K. pneumoniae
[13] = ATCC13883, read-out: log(EC50) Bacterial Proliferation Assay K. pneumoniae (converted)
[14] = ATCC19606, read-out: log(EC50) Bacterial Proliferation Assay A. baumannii (converted)
[15] = ATCC10145, read-out: Bacterial Proliferation EC50 P. aeruginosa
[16] = ATCC10145, read-out: log(EC50) Bacterial Proliferation Assay P. aeruginosa (converted)

T1 sequence (P10809 27-573): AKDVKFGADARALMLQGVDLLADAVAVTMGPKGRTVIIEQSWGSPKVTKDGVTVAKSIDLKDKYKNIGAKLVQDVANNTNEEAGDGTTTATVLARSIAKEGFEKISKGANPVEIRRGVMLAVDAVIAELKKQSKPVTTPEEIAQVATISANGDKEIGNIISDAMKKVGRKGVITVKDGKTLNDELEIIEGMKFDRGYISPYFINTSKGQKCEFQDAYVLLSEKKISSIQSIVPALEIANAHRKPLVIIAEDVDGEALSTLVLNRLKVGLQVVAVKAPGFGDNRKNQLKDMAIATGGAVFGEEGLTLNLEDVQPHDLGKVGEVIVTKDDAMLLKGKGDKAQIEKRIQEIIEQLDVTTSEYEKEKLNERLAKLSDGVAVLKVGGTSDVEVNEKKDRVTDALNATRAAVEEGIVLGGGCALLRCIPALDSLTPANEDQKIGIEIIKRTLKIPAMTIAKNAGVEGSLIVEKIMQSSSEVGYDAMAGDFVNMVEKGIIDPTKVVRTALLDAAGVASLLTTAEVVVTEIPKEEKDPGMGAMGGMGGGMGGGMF

SMILES	pIC50 (human HSP60/10)	IC50 (human HSP60/10)	pEC50 ([1]; ATCC19434, OD600 at 24 h)	EC50 [1, 5]	pEC50 [2, 6]	EC50 [2, 7]	pEC50 ([3]; ATCC19606, OD600 at 24 h)	EC50 [3, 8]	pEC50 [4, 9]	EC50 [4, 10]	pEC50 ([1]; ATCC19434, 24 h)	EC50 [1, 11]	pEC50 [2, 12]	EC50 [2, 13]	pEC50 ([3]; ATCC19606, 24 h)	EC50 [3, 14]	pEC50 [4, 15]	EC50 [4, 16]
COc1c(Br)cccc1C(=O)Nc1ccccc1 [Compound 42, 3-Bromo-2-methoxy-N-phenylbenzamide]	< 4.00	> 100 µM	< 4.00	> 100 µM	< 4.00	> 100 µM	< 4.00	> 100 µM	< 4.00	> 100 µM								
O=C(Nc1ccc(Sc2nc3ccccc3s2)c(Cl)c1)c1cc(Br)cc(Br)c1 [Compound 17, N-(4-(Benzo[d]thiazol-2-ylthio)-3-chlorophenyl)-3,5-dibromobenzamide]	< 4.00	> 100 µM	< 4.00	> 100 µM	< 4.00	> 100 µM	< 4.00	> 100 µM	< 4.00	> 100 µM								
O=C(Nc1cccc(Cl)c1)c1cccc(Br)c1 [Compound 24, 3-Bromo-N-(3-chlorophenyl)benzamide]	< 4.00	> 100 µM	< 4.00	> 100 µM	< 4.00	> 100 µM	< 4.00	> 100 µM	< 4.00	> 100 µM								
O=C(Nc1cccc(Cl)c1)c1ccccc1 [Compound 25, N-(3-Chlorophenyl)benzamide]	< 4.00	> 100 µM	< 4.00	> 100 µM	< 4.00	> 100 µM	< 4.00	> 100 µM	< 4.00	> 100 µM								
COc1c(Br)cc(Br)cc1C(=O)Nc1cccc(Cl)c1 [Compound 37, 3,5-Dibromo-N-(3-chlorophenyl)-2-methoxybenzamide]	< 4.00	> 100 µM	< 4.00	> 100 µM	< 4.00	> 100 µM	< 4.00	> 100 µM	< 4.00	> 100 µM								
O=C(Nc1cccc(Cl)c1)c1cc(Br)ccc1O [Compound 11, 5-Bromo-N-(3-chlorophenyl)-2-hydroxybenzamide]	< 4.00	> 100 µM									< 4.00	> 100 µM	< 4.00	> 100 µM	< 4.00	> 100 µM	< 4.00	> 100 µM
O=C(Nc1cccc(Cl)c1)c1cc(Br)cc(Br)c1O [Compound 9, 3,5-Dibromo-N-(3-chlorophenyl)-2-hydroxybenzamide]	4.54	28.8 µM									4.14	72.4 µM	4.02	95.5 µM	4.34	45.7 µM	< 4.00	> 100 µM
O=C(Nc1ccc(Sc2nc3ccccc3s2)cc1)c1cc(Br)ccc1O [Compound 7, N-(4-(Benzo[d]thiazol-2-ylthio)phenyl)-5-bromo-2-hydroxybenzamide]	< 4.00	> 100 µM									4.72	19.5 µM	< 4.00	> 100 µM	< 4.00	> 100 µM	< 4.00	> 100 µM
COc1ccccc1C(=O)Nc1ccc(Sc2nc3ccccc3s2)c(Cl)c1 [Compound 32, N-(4-(Benzo[d]thiazol-2-ylthio)-3-chlorophenyl)-2-methoxybenzamide]	< 4.00	> 100 µM	< 4.00	> 100 µM	< 4.00	> 100 µM	< 4.00	> 100 µM	< 4.00	> 100 µM								
O=C(Nc1ccc(Oc2ccc(Cl)cc2)c(Cl)c1)c1cc(I)cc(I)c1O [Rafoxanide, rafoxanide, reference compound]											6.00	1 µM	< 4.00	> 100 µM	4.51	30.9 µM	< 4.00	> 100 µM
Cc1cc(C(C#N)c2ccc(Cl)cc2)c(Cl)cc1NC(=O)c1cc(I)cc(I)c1O (stereo not shown) [Closantel, closantel, reference compound]											5.92	1.23 µM	< 4.00	> 100 µM	< 4.00	> 100 µM	< 4.00	> 100 µM
